Results reported in US5688938A, “Calcium receptor-active molecules” (priority 1995, dated 1997).
Entries after “also recorded” stand apart in the source; their conditions may differ.

Columns and labels:
[1] = test system: L-type voltage-sensitive Ca^2+ channel; assay: block of extracellular Ca^2+-induced increases in [Ca^2+]i in rMTC 6-23 cells; format: cell-based, rat; conditions: read-out: IC50 for block of extracellular Ca^2+-induced increases in [Ca^2+]i
[2] = serum ionized Ca^2+ in parathyroidectomized rats; format: in vivo, rat; conditions: 10 mg/kg i.p., 6 hours
Excerpt: To determine the primary target tissue upon which NPS R-467 acts to cause a hypocalcemic response, the parathyroid glands in rats were surgically removed. Animals receiving a total parathyroidectomy become hypocalcemic and are largely dependent upon dietary calcium to maintain serum Ca^2+ homeostasis.

[3] = serum/blood calcium, PTH, albumin and phosphate in rats, intraperitoneal; format: in vivo, rat; conditions: 10 mg/kg i.p., 1 hour, normal diet
Protocol: Compounds shown to activate the bovine parathyroid cell calcium receptor in vitro were tested for hypocalcemic activity in vivo. […] […] […] Serum total calcium, albumin and phosphate were measured by techniques well known in the art.

[4] = test system: parathyroid cell calcium receptor; assay: Cl^- current in Xenopus oocytes injected with (bovine) parathyroid cell mRNA; format: cell-based; conditions: 30 μM
Protocol: Following incubation, an oocyte was placed into a 100-μl plastic chamber and superfused with MBS at a flow rate of 0.5 ml/min using a peristaltic pump. Test molecules or inorganic polycations were added by rapidly moving the tubing into different buffers. Recording and current passing electrodes were constructed from thin-wall capillary tubing pulled to a resistance of 1-3 Mohms and filled with 3M KCl. […] Currents were recorded directly onto a strip chart recorder.

[5] = target: T1, human parathyroid cell calcium receptor (Homo sapiens, UniProt P41180); assay: Cl^- current in Xenopus oocytes expressing cloned human parathyroid calcium receptor; format: cell-based; conditions: pHuPCaR 5.2 and 4.0
T1 construct: cRNA injected in Xenopus oocytes
T1 sequence (P41180 20-1078 R990G/E1011Q): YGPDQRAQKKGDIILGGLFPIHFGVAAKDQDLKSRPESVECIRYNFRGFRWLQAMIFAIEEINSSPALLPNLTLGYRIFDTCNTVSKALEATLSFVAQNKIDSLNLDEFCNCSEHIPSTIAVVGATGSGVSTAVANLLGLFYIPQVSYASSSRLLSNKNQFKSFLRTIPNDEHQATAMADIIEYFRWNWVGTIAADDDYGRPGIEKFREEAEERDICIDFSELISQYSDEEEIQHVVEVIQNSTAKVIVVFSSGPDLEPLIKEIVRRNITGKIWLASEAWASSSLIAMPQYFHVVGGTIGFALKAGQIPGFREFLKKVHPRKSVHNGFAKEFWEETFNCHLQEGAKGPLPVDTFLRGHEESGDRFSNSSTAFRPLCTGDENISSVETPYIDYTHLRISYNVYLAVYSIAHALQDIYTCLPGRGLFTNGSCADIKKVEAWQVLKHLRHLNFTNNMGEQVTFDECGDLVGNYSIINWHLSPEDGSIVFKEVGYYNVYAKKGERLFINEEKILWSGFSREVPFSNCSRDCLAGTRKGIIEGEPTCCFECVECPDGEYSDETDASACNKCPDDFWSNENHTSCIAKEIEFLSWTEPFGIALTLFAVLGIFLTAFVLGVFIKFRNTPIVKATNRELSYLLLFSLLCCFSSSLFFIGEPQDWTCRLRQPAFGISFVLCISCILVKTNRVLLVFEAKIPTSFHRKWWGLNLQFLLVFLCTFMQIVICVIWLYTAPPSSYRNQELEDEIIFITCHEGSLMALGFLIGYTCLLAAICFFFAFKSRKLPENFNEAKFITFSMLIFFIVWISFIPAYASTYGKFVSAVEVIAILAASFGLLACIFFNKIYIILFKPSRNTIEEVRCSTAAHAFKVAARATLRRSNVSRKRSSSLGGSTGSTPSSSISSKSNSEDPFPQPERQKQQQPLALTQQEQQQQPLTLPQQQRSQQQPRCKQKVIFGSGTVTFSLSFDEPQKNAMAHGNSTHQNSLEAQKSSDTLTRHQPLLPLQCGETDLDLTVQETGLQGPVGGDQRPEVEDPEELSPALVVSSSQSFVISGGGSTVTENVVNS
Protocol: Representative cDNA inserts for both size classes were subcloned into the plasmid vector pBluescript SK. Linearization followed by in vitro transcription using T7 RNA polymerase produced cRNA transcripts. The cRNA transcripts were injected into Xenopus oocytes (150 ng/μl RNA; 50 nl/oocyte) for functional analysis. Following incubation periods of 2-4 days, the oocytes were assayed for the presence of functional calcium receptors. Both clone types gave rise to functional calcium receptors as assessed by the stimulation of calcium-activated chloride currents upon addition of appropriate calcium receptor agonists. […] Thus, both clones encode a functional, human parathyroid cell calcium receptor.
Xenopus oocytes were injected with pHuPCaR 5.2, the 5.2 Kb cDNA encoding a parathyroid cell calcium receptor derived from a human parathyroid cell adenoma. (See Example 27.) After two to three days, Cl^- currents were measured in the oocytes using a two-electrode voltage clamp.

[6] = test system: human parathyroid calcium receptor (HuPCaR 5.2); assay: intracellular calcium in HEK293 cells transfected with HuPCaR 5.2; format: cell-based; conditions: Ca^2+ 10 mM, Mg^2+ 20 mM
Protocol: Cells obtained from the pool of hygromycin selected HEK293 cells transfected with Cep4B containing the HuPCaR 5.2 insert were plated on collagen coated Aklar squares which had been placed into individual wells of 12-well tissue culture plates. Two to six days later, medium was removed and the cells washed with balanced salt solution and 1 ml of buffer containing 1 μM fura2-AM, 1 mM CaCl2 and 0.1% BSA and […]. Measurements of fluorescence in response to calcium receptor agonists were performed at 37° C. in a spectrofluorimeter using excitation and emission wavelengths of 340 and 510 nm, respectively. For signal calibration, Fmax was determined after addition of ionomycin (4.0 μM) and the apparent Fmin was determined by addition of 0.3M EGTA, 2.5M Tris-HCl; pH 10.

[7] = serum/plasma Ca^2+, PTH and calcitonin in rats, oral; format: in vivo; conditions: rat, single oral dose, 3 hours
Excerpt: Rats (male, Sprague-Dawley, 250-300 g) were fed standard rat chow and fasted overnight prior to the experiment. NPS R-467 was suspended in corn oil and administered as a single oral dose through a gavage needle. Three hours later a sample of blood was taken from the tail vein and assessed for ionized Ca^2+ levels.

[8] = target: T2, parathyroid cell calcium receptor (Bos taurus, UniProt P35384); assay: cell-based; format: cell-based
T2 sequence (P35384 21-1085 limits assumed): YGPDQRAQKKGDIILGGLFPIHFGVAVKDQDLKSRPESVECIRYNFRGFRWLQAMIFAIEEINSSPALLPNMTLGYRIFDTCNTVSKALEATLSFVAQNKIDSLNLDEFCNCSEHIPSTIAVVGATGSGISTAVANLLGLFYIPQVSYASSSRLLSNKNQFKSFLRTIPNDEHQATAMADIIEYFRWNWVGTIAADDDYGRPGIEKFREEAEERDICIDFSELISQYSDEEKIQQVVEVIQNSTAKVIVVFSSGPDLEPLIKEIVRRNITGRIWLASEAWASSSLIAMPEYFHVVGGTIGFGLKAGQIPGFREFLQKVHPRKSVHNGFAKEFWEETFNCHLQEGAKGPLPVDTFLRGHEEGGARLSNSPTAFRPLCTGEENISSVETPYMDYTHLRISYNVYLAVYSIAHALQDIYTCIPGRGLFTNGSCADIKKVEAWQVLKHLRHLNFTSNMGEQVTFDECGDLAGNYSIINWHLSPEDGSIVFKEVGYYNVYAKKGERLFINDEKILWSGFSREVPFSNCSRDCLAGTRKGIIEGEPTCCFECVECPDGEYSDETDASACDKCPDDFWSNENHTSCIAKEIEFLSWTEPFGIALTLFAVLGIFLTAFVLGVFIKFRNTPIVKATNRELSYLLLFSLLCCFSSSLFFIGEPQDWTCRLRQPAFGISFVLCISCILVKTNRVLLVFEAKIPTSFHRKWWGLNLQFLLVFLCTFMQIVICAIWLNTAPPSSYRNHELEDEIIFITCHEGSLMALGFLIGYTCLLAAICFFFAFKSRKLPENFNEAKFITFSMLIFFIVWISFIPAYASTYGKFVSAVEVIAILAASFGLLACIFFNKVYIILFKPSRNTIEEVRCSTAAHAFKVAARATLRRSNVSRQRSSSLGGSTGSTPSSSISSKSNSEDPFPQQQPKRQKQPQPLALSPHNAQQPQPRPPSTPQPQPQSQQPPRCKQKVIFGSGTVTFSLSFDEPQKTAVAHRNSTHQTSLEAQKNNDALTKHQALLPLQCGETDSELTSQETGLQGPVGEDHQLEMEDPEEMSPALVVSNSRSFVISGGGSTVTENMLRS
Protocol: For example,.bovine parathyroid cells loaded with fura-2 are initially suspended in buffer containing 0.5 mM CaCl2. A test substance is added to the cuvette in a small volume (5-15 μl) and changes in the fluorescence signal are measured. Cumulative increases in the concentration of the test substance are made in the cuvette until some predetermined concentration is achieved or no further changes in fluorescence are noted.
This section describes procedures used to obtain and treat parathyroid cells from calves and humans. […] Human parathyroid glands, were obtained from patients undergoing surgical removal of parathyroid tissue for primary or uremic hyperparathyroidism (uremic HPT), and were treated similarly to bovine tissue.
Glands were trimmed of excess fat and connective tissue and then minced with fine scissors into cubes approximately 2-3 mm on a side. Dissociated parathyroid cells were prepared by collagenase digestion and then purified by centrifugation in Percoll buffer. The resultant parathyroid cell preparation was essentially devoid of red blood cells, adipocytes, and capillary tissue as assessed by phase contrast microscopy and Sudan black B staining. Dissociated and purified parathyroid cells were present as small clusters containing 5 to 20 cells.
The cells were then transferred to plastic flasks (75 or 150 cm^2 ; Falcon) and incubated overnight at 37° C. in a humid atmosphere of 5% CO2. No serum is added to these overnight cultures, since its presence allows the cells to attach to the plastic, undergo proliferation, and dedifferentiate. Cells cultured under the above conditions were readily removed from the flasks by decanting, and show the same viability as freshly prepared cells.
The cells were then pelleted, resuspended in the same buffer, but lacking the ester, and incubated a further 15 minutes at 37° C. The cells were subsequently washed twice with PCB containing 0.5 mM CaCl2 and 0.5% BSA and maintained at room temperature (about 20° C.). Immediately before use, the cells were diluted five-fold with prewarmed 0.5mM CaCl2 -PCB to obtain a final BSA concentration of 0.1%. The concentration of cells in the cuvette used for fluorescence recording was 1-2×10^6 /ml.
The fluorescence of indicator-loaded cells was measured at 37° C. in a spectrofluorimeter (Biomedical Instrumentation Group, University of Pennsylvania, Philadelphia, Pa.) equipped with a thermostated cuvette holder and magnetic stirrer using excitation and emission wavelengths of 340 and 510 nm, respectively. […] Leakage of dye is dependent on temperature and most occurs within the first 2 minutes after warming the cells in the cuvette. Dye leakage increases only very slowly thereafter. To correct the calibration for dye leakage, cells were placed in the cuvette and stirred at 37° C. for 2-3 minutes. The cell suspension was then removed, the cells pelleted, and the supernatant returned to a clean cuvette. […] This estimate was subtracted from the apparent Fmin.
Dissociated bovine parathyroid cells were purified on gradients of Percoll and cultured overnight in serum-free medium. […] That is,

rat osteoclasts = assay: inhibition of bone resorption (pit formation on bovine cortical bone slices); format: cell-based; conditions: Osteoclast, 24 hours, read-out: IC50 for inhibition of bone resorption in vitro
Excerpt: This was done by morphometric analysis of pit formation on thin slices of bovine cortical bone using scanning electron microscopy.

[9] = test system: osteoclast calcium receptor; assay: [Ca^2+]i (indo-1) in rat osteoclasts; format: cell-based; conditions: with or without 1 mM extracellular CaCl2

NCCCNCCCCNCCCNCCCN(O)CCCNC(=O)Cc1c[nH]c2cccc(O)c12 [NPS 015]
IC50 [1]: 3 µM

COc1cccc([C@@H](C)NCCCc2ccccc2)c1 [NPS R-467, (R)-(+)-N-(3-phenylpropyl)-α-methyl-3-methoxybenzylamine]
change in serum ionized Ca^2+ [2]: did not cause any change
decrease in serum ionized Ca^2+ from control level [3]: 22%
Cl^- current in oocytes [4]: rapid increase
activation of oocyte-expressed human receptor [5]: activated the oocyte-expressed receptor at about the same concentrations
increase in intracellular calcium [6]: Robust increases in intracellular calcium
reduction in serum ionized Ca^2+ [7]: dose-dependent reduction in serum levels of ionized Ca^2+
[Ca^2+]i response in presence of 0.5 mM extracellular Ca^2+ [8]: rapid and transient increase in [Ca^2+ ]i
[Ca^2+]i response in Ca^2+-free buffer after 10 μM neomycin ([8]; 30 μM NPS R-467): transient increase in [Ca^2+ ]i
[Ca^2+]i response in Ca^2+-free buffer after 100 μM neomycin ([8]; 30 μM NPS R-467): did not cause an increase in [Ca^2+ ]i
[Ca^2+]i response in Ca^2+-free buffer ([8]; no extracellular Ca^2+, NPS R-467 30 μM): abolished; also recorded: no increase in [Ca^2+ ]i

CC(Cc1ccccc1)NCCC(c1ccccc1)c1ccccc1 (stereo not shown) [Prenylamine]
IC50 (rat osteoclasts): 10 µM
mobilization of [Ca^2+]i in rat osteoclasts [9]: mobilization of [Ca^2+ ]i
